Laboratory results from patent US12589087B2, “Enantiomer selective action on neurotransmission” (The Board of Trustees of the Leland Stanford Junior …, priority 2021, dated 2026).
Where two headings read alike, the source gives them in different places.

Key:
[1] = tested on: mouse cerebral synaptosomes; test: Synaptosomal neurotransmitter uptake assay; type: cell-based
Description: To each tube, 5 μL of a test compound solution (final concentration 10 μM) in Buffer KRP or Buffer KRP alone were added. Samples were incubated at 4° C. or 37° C. for 1, 10, or 30 min and then immediately centrifuged and washed twice by resuspension-centrifugation with Buffer S (0.5 mL). Resulting pellets were resuspended in 170 μL of 0.1% aqueous formic acid and mixed with 330 μL of ACN.
96-well plate experiments: 250 μL aliquots of the synaptosome suspension were transferred to two 0.8-mL 96 well plates, one on ice (0° C. samples only) and one in a thermoblock (37° C. samples only), and equilibrated for 10 min. 5 μL of a test compound (0.5 mM; final concentration: 10 μM) in Buffer KRP or Buffer KRP blank were added 10, 20 or 30 min before the incubation termination. “0 min” samples were prepared by placing the test compound solution in a separate pre-chilled V-shape bottom 2-mL 96 well plate; at the end of incubation 200 μL aliquots of all samples were transferred to the 2-mL 96 well plate and centrifuged (2,500 g for 15 min at 4° C.) immediately. The resulting pellets were rinsed with Buffer KRP, followed by centrifugation, twice, then resuspended in 200 μL of 60% ACN containing 2.5 μM Glu-d5 as internal standard and stored at −80° C. until analysis.
(§1) Synaptosome uptake and high potassium-induced release assays were performed as described in Example 1. Uptake assays used 250 μL aliquots of the synaptosome suspension transferred to a pre-chilled 0.8 mL 96 well plate. 5 μL of a test compound solution (0.5 mM; final concentration: 10 μM to compare directly to our previous work was added to each well and incubated at 0° C. or 37° C. After 10, 20 or 30 min, samples were chilled on ice and immediately sedimented (2,500 g for 15 min at 4° C.) and washed with Buffer S (0.5 mL, ×2). Resulting pellets were resuspended in 200 μL of 60% ACN containing 5 μM GABA-d6 and stored at −80° C. until analysis. Potassium-induced release assay used 500 μL aliquots of the synaptosome suspension transferred to pre-chilled microcentrifuge tubes. 2.5 μL of a test compound solution (20 mM; final concentration: 100 μM) in Buffer KRP was added to each tube and incubated for 15 min at 37° C., briefly chilled on ice, and then immediately sedimented (8,000 g for 4 min at 4° C.) and washed with Buffer KRP, followed by centrifugation, twice. The resulting pellets were resuspended in 500 μL of Buffer KRP or Buffer K-KRP and incubated for 5, 10 or 15 min at 37° C., sedimented (8,000 g for 4 min at 4° C.), and washed with Buffer KRP. Resulting pellets were resuspended in 400 μL of 60% ACN containing 2.5 μM GABA-d6 as internal standard and stored at −80° C. until analysis.

[2] = tested on: mouse hippocampal slice cultures; test: Kainic acid neurodegeneration in hippocampal slice cultures (propidium iodide); type: cell-based
Description: We employed a standard technique of ex vivo experimentation to determine the efficacy of 2MeGlu, 2MeGln, and 4APA to prevent neurodegeneration. Mouse hippocampal slice cultures were prepared and then exposed to one of the three test compounds at either 5 or 50 μM for one hour. Then media was changed to contain either 2 or 5 μM kanic acid (KA) for 24 hr. […] After 24, the amount of neurodegeneration was assayed with propidium iodide staining. Increasing the dose of KA led to greater neurodegeneration at 5 μM than at 2 μM.

[3] = tested on: mouse cerebral synaptosomes; test: Potassium-induced neurotransmitter release assay; type: cell-based; conditions: for synaptosome total GABA concentration following preincubation: 100 μM preincubation 15 min 37° C., vehicle 9.5±0.2; for reduction of synaptosome 4APA concentration by K+-induced membrane depolarization: 40 mM K+ vs 5 mM K+, 15 min; for endogenous GABA displaced in synaptosomes: once incorporated into synaptosomes
Description: To each tube, 2.5 μL of a test compound solution (final concentration 100 μM) in Buffer KRP or Buffer KRP alone were added. Samples were incubated for 15 min at 37° C., briefly chilled on ice, and then immediately centrifuged and washed twice with Buffer KRP. The resulting pellets were then resuspended in either Buffer KRP (500 μL) or Buffer K-KRP (500 μL). Samples were immediately centrifuged or incubated for 5, 10 or 15 min at 37° C., then centrifuged and washed with Buffer KRP. Resulting pellets were resuspended in 400 μL of 60% ACN containing 2.5 μM Glu-d5 and 2.5 μM Gln-d5 as internal standards.
as §1

[4] = tested on: C57Bl/6 mice; type: in vivo; conditions: for mortality after single dose: mouse, in vivo; for distance moved in the novel cage: single 100, 300, or 900 mg/kg IP, dose- and time-dependent
Description: Dosing: (R)-2MeGlu (30, 100, 300, or 900 mg/kg), (S)-2MeGlu (30, 100, 300, or 900 mg/kg), rac-2MeGln (30, 100, 300, or 900 mg/kg) and vehicle (PBS) were administered at 10 ml/kg IP dosing volume. Three mice were dosed once with the assigned drug (100, 300, or 900 mg/kg) or vehicle and immediately placed in a new cage for novel cage observation. Subsequently, six mice were dosed once with the assigned drug (30 or 100 mg/kg) or vehicle and tested by SHIRPA, activity chamber, and then hot plate tests.
The mouse was dosed and immediately placed in the center of a clean, Innovive disposable rat cage with bedding (dimensions: 17″L×13.4″W×7.8″H) and allowed to move freely while being tracked automatically. Mice were monitored with Ethovision XT tracking software for the distance moved and average velocity during the 60-minute trial. They were returned to their home cage after the test. A new cage was used for each mouse.
Exploratory behavioral tests were performed exactly as previously described by us using 2-month-old C57Bl/6 male mice, Example 1. First, we assessed safety and tolerability of acute exposure to 4APA enantiomers in 22 mice by novel cage observation at 100, 300, or 900 mg/kg IP compared to vehicle (PBS) IP (n=3 or 4 mice per group without sample calculation, based on our previous study. Next, we evaluated 24 drug naïve mice with a 23-measure battery of neurologic dysfunction in mice (SHIRPA) (Rogers et al., 2001), automated activity chamber assessment, and hot plate latency acutely following 30 or 100 mg/kg IP compared to vehicle IP (n=4 or 5 mice per group). No exclusion criteria were predetermined and no randomization was performed to allocate subjects in the study.

[5] = Metabolism in synaptosomes (GABA shunt, glutamate-glutamine cycle); type: in vitro ADME; conditions: mouse, mouse cerebral synaptosomes; synaptosomes preincubated with 100 μM, normal KRP buffer, 37° C.; read-out: synaptosomal concentration, estimated half life
Description: To each tube, a 5 μL aliquot of a test compound solution (final concentration 100 μM) in Buffer KRP or Buffer KRP alone were added. The samples were incubated for 15 min at 37° C., briefly chilled on ice, and then immediately centrifuged and washed twice by resuspension-centrifugation with Buffer S (0.5 mL). The pellets were then resuspended in Buffer KRP (500 μL). Samples were then immediately centrifuged or incubated for 5, 10, 15, 20, 25 or 30 min at 37° C. and then centrifuged and washed by resuspension-centrifugation with Buffer S (0.5 mL). Resulting pellets were resuspended in 170 μL of 0.1% aqueous formic acid, mixed with 330 μL of ACN.
To each tube, 5 μL of 2MeGlu solution (final concentration 100 μM) in Buffer KRP or Buffer KRP alone were added. The samples were incubated for 15 min at 37° C., briefly chilled on ice, and then immediately centrifuged and washed twice by resuspension-centrifugation with Buffer S (0.5 mL). The pellets were then resuspended in Buffer KRP (200 μL). Samples were then kept on ice or incubated for 10, 20, 30, 40 or 50 min at 37° C. and then chilled on ice. Then all samples were centrifuged, 200 μL of supernatants were collected, and the pellets were suspended in 200 μL of 80% ACN. Supernatants and pellet suspensions were diluted with 250 μL of ACN and 50 μL of 10 μM d5-Glu in water as internal standard.

[6] = target: T1, human glutaminase GLS1 (Homo sapiens, UniProt O94925); test: Catalysis of 2MeGln hydrolysis by GLS1 glutaminase; type: biochemical; conditions: human GLS1
T1 construct: purchased Sigma SRP0516
T1 sequence (O94925 55-669): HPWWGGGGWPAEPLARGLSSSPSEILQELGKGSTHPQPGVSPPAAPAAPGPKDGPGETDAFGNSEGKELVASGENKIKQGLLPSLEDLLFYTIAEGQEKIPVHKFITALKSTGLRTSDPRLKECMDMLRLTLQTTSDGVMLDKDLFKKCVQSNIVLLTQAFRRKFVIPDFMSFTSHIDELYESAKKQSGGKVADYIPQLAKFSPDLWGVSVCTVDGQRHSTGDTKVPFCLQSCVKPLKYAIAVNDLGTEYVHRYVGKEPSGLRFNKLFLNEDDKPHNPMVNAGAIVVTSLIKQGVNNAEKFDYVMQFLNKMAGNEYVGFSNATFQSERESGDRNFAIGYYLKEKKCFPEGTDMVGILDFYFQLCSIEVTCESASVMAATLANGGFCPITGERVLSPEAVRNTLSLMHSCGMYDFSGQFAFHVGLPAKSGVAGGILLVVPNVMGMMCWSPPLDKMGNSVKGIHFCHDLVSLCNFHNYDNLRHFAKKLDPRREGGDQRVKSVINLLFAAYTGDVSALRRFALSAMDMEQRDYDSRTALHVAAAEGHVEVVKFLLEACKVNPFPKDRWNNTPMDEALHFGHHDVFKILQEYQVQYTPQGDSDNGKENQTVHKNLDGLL
Description: The procedure was adapted from an existing protocol. To a reaction mixture in a 1.5 mL microcentrifuge tube containing 10 mM rac-2MeGln or L-Gln-^13C2 in 100 mM phosphate pH 7.4 buffer made in 20% atom ^18O water, recombinant GLS1 (final concentration: 5 ng/mL) was added. The tubes were incubated in a preheated thermomixer at 37° C. and periodically shaken at 600 rpm (30 s on, 30 s off). 5 μL aliquots were collected in triplicate every 5 min and immediately diluted with 195 μL of cold 60% ACN containing 10 μM Glu-d5 and Gln-d5 as internal standards in a 96 well plate. After collecting all samples, the plate was shaken at 1000 rpm for 5 min at room temperature, and then stored at −80° C. Before analysis the plate was thawed and 10 μL aliquots of the extracted reaction mixtures were diluted with 190 μL of 90% acetonitrile.
The quantification of the newly formed 2MeGlu in the presence of the preexisting trace amounts was performed in the following way. Peak area ratio of Glu-^13C2 to Glu-^13C2^18O was calculated in all samples containing Glu-^13C2. The mean ratio value was then applied to calculate the hypothetical peak area of the newly formed 2MeGlu based on the directly measured 2MeGlu-^18O peak area. The ratio of the newly formed 2MeGlu peak area and the total 2MeGlu peak area was applied to calculate the concentration of the newly formed 2MeGlu from the total 2MeGlu concentration determined directly using the calibration curve.

[7] = tested on: Line 61 mice; test: Transgenic α-synuclein mouse model, tapered beam test; type: in vivo
Description: Line 61 mice overexpress human α-synuclein under control of the mouse Thy-1 promoter. The transgene is X-linked so females have variable transgene expression; for this reason, we focused on male mice. […] Categorical data from the tapered beam task were unblinded and analyzed by X square test (P<0.005).

| Compound | synaptosome concentration, % of (R)-4APA ([1]; 10 μM, 30 min at 37° C.) | synaptosome total GABA concentration following preincubation [3] | reduction of synaptosome 4APA concentration by K+-induced membrane depolarization [3] | endogenous GABA displaced in synaptosomes [3] | mortality after single dose [4] | distance moved in the novel cage [4] | also measured |
| --- | --- | --- | --- | --- | --- | --- | --- |
| CC(N)CCC(=O)O (racemic) [rac-4APA, (rac)-4-Aminopentanoic acid] | 78.5±3.8% | 4.4±0.4 nmol/mg protein | 62.2±8.6% | about 55% |  |  | transport into synaptosomes ([1]; 10 μM substrate, 37° C.): transported into synaptosomes; neuroprotection ([2]; 5 or 50 μM compound): not neuroprotective; synaptosome Glu concentration ([3]; preincubation with compound): not significantly changed; potassium-induced release from synaptosomes ([3]; preloaded with 100 μM for 15 min at 37° C., high-potassium depolarization): high potassium concentration-dependent release |
| C[C@H](N)CCC(=O)O [(S)-4APA, (S)-4-aminopentanoic acid] | 22.8±0.8% | 6.0±0.6 nmol/mg protein | did not significantly reduce | approximately 30% | no mouse died | significantly decreased |  |
| CC(N)(CCC(=O)O)C(=O)O (racemic) [rac-2MeGlu, rac-2-Methylglutamic acid] |  |  |  |  |  |  | half-life at 100 μM [5]: 21 min; reduction of neurodegeneration ([2]; 50 μM compound, lower dose of KA (2 μM)): approximately 50%; neuroprotection at the higher dose of KA ([2]; 5 or 50 μM compound, 5 μM KA): Neither dose of 2MeGlu or 2MeGln was neuroprotective |
| C[C@](N)(CCC(N)=O)C(=O)O [(S)-2MeGln, (S)-2-methylglutamine] |  |  |  |  |  |  | substrate of GLS1 (hydrolysis to 2MeGlu) [6]: substrates |
| C[C@@H](N)CCC(=O)O [(R)-4APA, (R)-4-aminopentanoic acid] |  | 3.8±0.5 nmol/mg protein | 55.3±6.8% | about 55% | no mouse died | significantly decreased | body weight or deaths ([7]; 5 or 50 mg/kg/d IP, seven days): no change in body weight or deaths; motor function, tapered beam ([7]; 7 days IP, high dose (50 mg/kg/d) S-2MeGlu, either dose (5 or 50 mg/kg/d) R-4APA): improved motor function similar to WT mice; α-synuclein accumulation in brain by immunohistochemistry vs vehicle ([7]; Line 61 mice): no significant change; synaptosome concentration of 4APA ([1]; 10 μM, 30 min at 37° C.): 9.3±0.6 nmol/mg protein; synaptosome uptake, faster than (S)-4APA ([1]; mouse synaptosomes): 4- to 5 fold; time post injection until not significantly different from vehicle, novel cage ([4]; 300 mg/kg IP): 13 min; time post injection until not significantly different from vehicle, novel cage ([4]; 900 mg/kg IP): 42 min |
